Measured values published in publication PMC11714206, “Massively Parallel Screening of Toll/Interleukin‐1 Receptor (TIR)‐Derived Peptides Reveals Multiple Toll‐Like Receptors (TLRs)‐Targeting Immunomodulatory Peptides” (Advanced Science, 2024).

Target: T1, MAL^TIR (Homo sapiens, UniProt P58753)
T1 construct: MAL (residues 79–221); 6xHis; made in house; host or cells: E. coli BL21 (DE3)
Assay: T‐Surf phage library (P8 and P3) selection against MAL^TIR, four rounds, NGS read counts
Format: binding
Conditions: for P3_MAL Rank (after) / P3_MAL Rank (before): P3 library; for P8_MAL Rank (after) / P8_MAL Rank (before): P8 library
Experimental: T‐Surf libraries were screened against the immobilized TIR domains of two major human TLR adaptor proteins, MAL^TIR and MyD88^TIR, allowing cross‐species selection of TIR‐binding motifs with 190 946 TIR‐derived peptides in a single binding assay (Scheme 1). Enriched phage pools from the fourth round of selection were analyzed using NGS after barcoding the peptide‐coding regions of the phage pools.
Phage display screening was performed by coating two wells of a 96‐well plate (Maxisorp, Thermo Fisher Scientific) with 100 µL of 5 µg mL^−1 TIR domains overnight; then, the coated wells were blocked with 200 µL of blocking buffer (0.2% BSA in PBS) and set aside for 1 h at 4 °C with gentle shaking. Next, 100 µL of the phage library was added to the wells and incubated for 1 h at room temperature (RT; 20 – 22 °C) with gentle shaking. The plate was washed four times with PBS containing 0.5% Tween‐20; the bound phages were eluted by adding 100 µL of 100 mM HCl to each well. The elute was neutralized with 10 µL of 1.0 M Tris‐HCl (pH 11.0). E. coli TG1 cells were grown to the log phase (A600 = ≈0.6), and 1 mL of the culture was incubated with 100 µL of the eluted phages for 30 min at 37 °C, with shaking at 200 rpm. Next, 1 µL of M13KO7 helper phages was added, followed by incubation for 45 min at 37 °C, with shaking. Subsequently, the cells were transferred to 25 mL of 2× yeast extract tryptone/carbenicillin/kanamycin medium and incubated overnight at 37 °C with shaking at 200 rpm. The amplified phages were precipitated with 20% PEG‐8000/2.5 M NaCl to be used for the next round of selection.
The naïve T‐Surf libraries in P8 and P3 and the enriched phage pools after four rounds were barcoded for NGS as previously described.^[ [59] ^] Briefly, 5 µL of the phage pool was used as a template for 20 cycles of a 50 µL PCR reaction using […] each of forward and reverse barcoded primers and PrimeSTAR Max DNA Polymerase. The PCR products were purified using Expin Gel SV (GeneAll). The NGS samples were quantified using qPCR, following the qPCR Quantification Protocol Guide (KAPA Library Quantification kits for Illumina Sequencing Platform), and qualified using the TapeStation High Sensitivity D1000 ScreenTape (Agilent Technologies). The indexed libraries were further sequenced by Macrogen (Seoul, Republic of Korea) using the NovaSeq platform (Illumina) with 100 bp paired‐end reads. The reads were demultiplexed by barcodes and filtered for an average Phred quality score of at least 30, followed by trimming the flanking consensus sequences using Cutadapt (version 2.3). Peptide sequence populations were analyzed according to the read counts.

[1] = selection against MAL, rank by count after grouping
[2] = selection against MAL, rank by count before grouping
[3] = P3_MAL: rank by count after grouping
[4] = P3_MAL: rank by count before grouping
[5] = selection against MAL, rank after grouping
[6] = selection against MAL, rank before grouping
[7] = selection against MAL TIR, rank by count after grouping
[8] = selection against MAL TIR, rank by count before grouping
[9] = 4R selection against MAL, rank after grouping
[10] = 4R selection against MAL, rank before grouping

T1 sequence (P58753 79-221): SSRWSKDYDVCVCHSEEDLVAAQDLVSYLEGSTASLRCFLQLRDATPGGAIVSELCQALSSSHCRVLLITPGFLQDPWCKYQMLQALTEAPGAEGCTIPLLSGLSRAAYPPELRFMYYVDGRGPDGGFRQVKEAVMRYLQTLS

DWFLSKLSQHSLKLEK was tested, and the “P3_MAL Rank (after)” value [1] was 718 and the “P3_MAL Rank (before)” value [2] was 1894.

With DWFREQLRPALKERLP the “Rank (after)” value [3] was 125 and the “Rank (before)” value [4] was 787.

In the case of DWFVSKLSQQILQREK, the “P3_MAL Rank (after)” value [1] is reported as 729 and the “P3_MAL Rank (before)” value [2] is reported as 1862.

With DWIREQLRPALKKRLP the “P3_MAL Rank (after)” value [5] was 520 and the “P3_MAL Rank (before)” value [6] was 1989.

DWSLSKLSQHFLKREK was tested, and the “P3_MAL Rank (after)” value [5] was 485 and the “P3_MAL Rank (before)” value [6] was 1909.

For EFVLTFVINLTPRTSF, the “P8_MAL Rank (after)” value [5] was 576 and the “P8_MAL Rank (before)” value [6] was 2041.

EKIVEWVWEKAHNRFK was tested, and the “P3_MAL Rank (after)” value [1] was 770 and the “P3_MAL Rank (before)” value [2] was 2080.

EKIVEWVWGKVHRTFK was tested, and the “P8_MAL Rank (after)” value [7] was 207 and the “P8_MAL Rank (before)” value [8] was 896.

With ELDFSHFWLFDGEAGGEP the “P8_MAL Rank (after)” value [5] was 569 and the “P8_MAL Rank (before)” value [6] was 2048.

ELFLDQVLAVLVKPTM was tested, and the “P8_MAL Rank (after)” value [5] was 530 and the “P8_MAL Rank (before)” value [6] was 2042.

With ELLLSVFMTLSAPRTV the “P8_MAL Rank (after)” value [5] was 577 and the “P8_MAL Rank (before)” value [6] was 2043.

In the case of ERILNQLRRSSQSIAK, the “Rank (after)” value [3] is reported as 421 and the “Rank (before)” value [4] is reported as 2078.

In the case of ERLFSEPLNVNKDLLG, the “Rank (after)” value [3] is reported as 434 and the “Rank (before)” value [4] is reported as 2032.

In the case of ESGKLASGAGKSGQT, the “P3_MAL Rank (after)” value [9] is reported as 598 and the “P3_MAL Rank (before)” value [10] is reported as 2037.

In the case of ESIIYQLHRSSERVAN, the “P3_MAL Rank (after)” value [5] is reported as 501 and the “P3_MAL Rank (before)” value [6] is reported as 2075.

In the case of ESILDQLRRRSQSIAN, the “P3_MAL Rank (after)” value [9] is reported as 591 and the “P3_MAL Rank (before)” value [10] is reported as 2042.

With ESILNHPRRSSQILSN the “P3_MAL Rank (after)” value [5] was 516 and the “P3_MAL Rank (before)” value [6] was 2047.

In the case of ESILNQLRHHLQAKDH, the “Rank (after)” value [3] is reported as 170 and the “Rank (before)” value [4] is reported as 544.

With ESILNQLRRSSESIAK the “P3_MAL Rank (after)” value [7] was 211 and the “P3_MAL Rank (before)” value [8] was 2053.

In the case of ESILNQLRRSSHSISN, the “P3_MAL Rank (after)” value [5] is reported as 542 and the “P3_MAL Rank (before)” value [6] is reported as 2054.

In the case of ESILNQLRRSSQSFAT, the “P3_MAL Rank (after)” value [7] is reported as 260 and the “P3_MAL Rank (before)” value [8] is reported as 2056.

With ESILNQLRRSSQSMR the “P3_MAL Rank (after)” value [7] was 202 and the “P3_MAL Rank (before)” value [8] was 2061.

ESILNQRRPSSQSIAN was tested, and the “P3_MAL Rank (after)” value [9] was 595 and the “P3_MAL Rank (before)” value [10] was 2071.

For ESILTKLRRSSQSIAN, the “P3_MAL Rank (after)” value [9] was 597 and the “P3_MAL Rank (before)” value [10] was 2045.

With EWILDTEARIWGWRQA the “Rank (after)” value [3] was 452 and the “Rank (before)” value [4] was 1992.

For EWIREQLRRSSQSIAN, the “P3_MAL Rank (after)” value [7] was 222 and the “P3_MAL Rank (before)” value [8] was 801.

With EWIREQMSPALKERLP the “P3_MAL Rank (after)” value [9] was 617 and the “P3_MAL Rank (before)” value [10] was 2023.

EYRNESKFIWDIINAI was tested, and the “Rank (after)” value (P8_MAL: rank by count after grouping) was 386 and the “Rank (before)” value (P8_MAL: rank by count before grouping) was 2047.

FAFTGHLHRYLVQRGV showed a Population (P3_MAL pool: P3 T-Surf phage library, 4th round of selection against MAL TIR, share of NGS reads) of 0.00338%.

With FAFTGQMLRYMVRSGL the “P3_MAL Rank (after)” value [1] was 717 and the “P3_MAL Rank (before)” value [2] was 1132.

In the case of FDRFHIYFLHFLLFSR, the “P8_MAL Rank (after)” value [1] is reported as 680 and the “P8_MAL Rank (before)” value [2] is reported as 1087.

With FISHLYAALQRKHVET the “Rank (after)” value [3] was 96 and the “Rank (before)” value [4] was 96.

With FLNFRAWMCVTIFWA the “P3_MAL Rank (after)” value [1] was 677 and the “P3_MAL Rank (before)” value [2] was 1176.

FLNFRGLDVRNYFLA was tested, and the “Rank (after)” value [3] was 408 and the “Rank (before)” value [4] was 1158.

With FLNFRGLDVRNYFLGH the “P8_MAL Rank (after)” value [5] was 560 and the “P8_MAL Rank (before)” value [6] was 1088.

With FLNFRGLGGRNYFLGH the “P3_MAL Rank (after)” value [9] was 628 and the “P3_MAL Rank (before)” value [10] was 1147.

In the case of FLNFRGLVVRNYFLVH, the “P3_MAL Rank (after)” value [1] is reported as 720 and the “P3_MAL Rank (before)” value [2] is reported as 1146.

FLNFRGLYVRNYFLGP was tested, and the “Rank (after)” value [3] was 462 and the “Rank (before)” value [4] was 1145.

For FLNWPRNPKEHRHFWH, the “P3_MAL Rank (after)” value [7] was 241 and the “P3_MAL Rank (before)” value [8] was 1181.

For FLSHLHRYLVQRGV, the “P3_MAL Rank (after)” value [9] was 601 and the “P3_MAL Rank (before)” value [10] was 1134.

In the case of FMSHLRHHLQAKDH, the “Rank (after)” value [3] is reported as 166 and the “Rank (before)” value [4] is reported as 709.

With FMSHLYQGLKIVAFL the “P3_MAL Rank (after)” value [5] was 523 and the “P3_MAL Rank (before)” value [6] was 1204.

With FMSHLYQGLKNRGI the “Rank (after)” value [3] was 165 and the “Rank (before)” value [4] was 499.
